Source: patent US9403850B2, “Beta-lactamase inhibitors” (priority 2013, dated 2016)

Experiments:
[1] = test system: K. pneumoniae A-1797 expressing KPC-2 and VIM-4; test: Broth microdilution MIC assay, partner meropenem; type: cell-based; conditions: Klebsiella pneumoniae, read-out: MIC of Exemplary Compounds in presence of fixed β-lactams, Fixed Mero, K.P. A-1797 KPC-2 VIM-4
VIM-2 = biological target: T1, VIM-2 (Escherichia coli, UniProt Q5U7L7); test: β-Lactamase enzyme inhibition assay, VIM-2 (nitrocefin substrate); type: biochemical; conditions: nitrocefin substrate 100 μM, 15 min preincubation at 37° C.; read-out: IC50, Class B VIM-2
T1 construct: made in house; host or cells: E. coli BL21(DE3)
Description: For Vim-2 metallo β-lactamase, the procedure was identical with the following exceptions, first the protein was not pH adjusted to pH 5 with 50 mM sodium acetate, second, the chromatography step was changed to a 5 ml Q sepharose anion exchange column pre-equilibrated with 50 mM Hepes pH 7.5, and elution of the protein was achieved by a linear gradient of NaCl (0-600 mM). Finally, the VIM-2 purification required a second run (3rd step) on the Q sepharose anion exchange column to achieve acceptable purity (>90%).
An equal volume of diluted enzyme stock was added, and the plates were incubated at 37° C. for 15 min. Nitrocefin was used as substrate for p99 AmpC, VIM-2 and OXA-1 and dispensed into each well at a final concentration of 100 μM. Absorbance at 486 nm was immediately monitored for 10 min using a Biotek Powerwave XS2 microplate spectrophotometer using the GEN5 softweare package (Biotek Instruments, Winooski Vt.). In an analogous fashion, imipenem was used as substrate for Kpc-2 and Cefotaxime was used for SHV-5, while changes in absorbance upon hydrolysis of the β-lactam ring were monitored at 300 nm and 260 nm respectively in UV-transparent 96-well microtiter assay plates. Maximum rates of hydrolysis were compared to those in control wells (without inhibitors), and percentages of enzyme inhibition were calculated for each concentration of inhibitor. The concentration of inhibitor needed to reduce the initial rate of hydrolysis of substrate by 50% (IC50) was calculated as the residual activity of β-lactamase at 486 nm using GraFit version 7 kinetics software package (Erithacus Software, Surrey, UK).
Using the methodology described above, examples of the current invention were evaluated for their ability to inhibit β-lactamase enzymes from all four Ambler classifications (A through D). […] NT=Not tested.

[2] = test system: K. pneumoniae 156319 expressing KPC-3; test: Broth microdilution MIC assay, partner meropenem; type: cell-based; conditions: Klebsiella pneumoniae, read-out: MIC of Exemplary Compounds in presence of fixed β-lactams, Fixed Mero, K.P. 156319 KPC-3
[3] = test system: E. coli ESBL4 expressing CTX-M-15; test: Broth microdilution MIC assay, partner ceftazidime;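 note: ceftazidime held fixed at 4 µg/mL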; type: cell-based; conditions: Escherichia coli, read-out: MIC of Exemplary Compounds in presence of fixed β-lactams, Fixed CAZ, E. coli ESBL4 CTX-M-15
[4] = test system: E. cloacae 144200 expressing Class C P99 AmpC; test: Broth microdilution MIC assay, partner ceftazidime;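 note: ceftazidime held fixed at 4 µg/mL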; type: cell-based; conditions: Enterobacter cloacae, read-out: MIC of Exemplary Compounds in presence of fixed β-lactams, Fixed CAZ, E. cl. 144200 p99 AmpC
[5] = test system: S. aureus MSSA-7 producing penicillinase PC-1; test: Broth microdilution MIC assay, partner piperacillin; type: cell-based; conditions: Staphylococcus aureus, fixed piperacillin 4 μg/mL, read-out: MIC of Exemplary Compounds in presence of fixed β-lactams, Fixed Pip, S. aureus MSSA-7 PC-1
[6] = test system: P. aeruginosa Ps296 expressing VIM-2; test: Broth microdilution MIC assay, partner meropenem; type: cell-based; conditions: Pseudomonas aeruginosa, read-out: MIC of Exemplary Compounds in presence of fixed β-lactams, Fixed Mero, P. aerug. Ps296 VIM-2

| Structure (SMILES) | MIC [1] [µg/mL] | IC50 (VIM-2) [nM] | MIC [2] [µg/mL] | MIC [3] [µg/mL] | MIC [4] [µg/mL] | MIC [5] [µg/mL] | MIC [6] [µg/mL] |
| --- | --- | --- | --- | --- | --- | --- | --- |
| NCCOc1ccc(CC(=O)N[C@H]2Cc3cccc(C(=O)O)c3OB2O)cc1OCCN [Example 58, (R)-3-(2-(3,4-bis(2-aminoethoxy)phenyl)acetamido)-2-hydroxy-3,4-dihydro-2H-benzo[e][1,2]oxaborinine-8-carboxylic acid] | 8 to 32 | 100 to 1000 | < 4 | < 4 | < 4 | < 4 | < 4 |
| O=C(N[C@H]1Cc2cccc(C(=O)O)c2OB1O)c1ccc(-c2ccncc2)cc1 [Example 27, (R)-2-hydroxy-3-(4-(pyridin-4-yl)benzamido)-3,4-dihydro-2H-benzo[e][1,2]oxaborinine-8-carboxylic acid] | > 32 | 1000 to 10000 | > 32 | < 4 | < 4 | < 4 | > 32 |
| O=C1Cc2cc(C(=O)N[C@H]3Cc4cccc(C(=O)O)c4OB3O)ccc2N1 [Example 33, (R)-2-Hydroxy-3-[(2-oxo-2,3-dihydro-1H-indole-5-carbonyl)-amino]-3,4-dihydro-2H-benzo[e][1,2]oxaborinine-8-carboxylic acid] | 8 to 32 | 100 to 1000 | < 4 | < 4 | < 4 | < 4 | < 4 |
| CN(C)Cc1ccc(C(=O)N[C@H]2Cc3cccc(C(=O)O)c3OB2O)cc1N [Example 18, (R)-3-(3-amino-4-((dimethylamino)methyl)benzamido)-2-hydroxy-3,4-dihydro-2H-benzo[e][1,2]oxaborinine-8-carboxylic acid] | < 4 | 100 to 1000 | < 4 | < 4 | < 4 | < 4 | < 4 |
| O=C(N[C@H]1Cc2cccc(C(=O)O)c2OB1O)c1csc2c1CCNC2 [Example 4, (R)-2-hydroxy-3-(4,5,6,7-tetrahydrothieno[2,3-c]pyridine-3-carboxamido)-3,4-dihydro-2H-benzo[e][1,2]oxaborinine-8-carboxylic acid] | < 4 | 100 to 1000 | < 4 | < 4 | < 4 | < 4 | > 32 |
| CN1CCc2cc(C(=O)N[C@H]3Cc4cccc(C(=O)O)c4OB3O)ccc2C1 [Example 7, (R)-2-hydroxy-3-(2-methyl-1,2,3,4-tetrahydroisoquinoline-6-carboxamido)-3,4-dihydro-2H-benzo[e][1,2]oxaborinine-8-carboxylic acid] | < 4 | 100 to 1000 | 8 to 32 | < 4 | < 4 | < 4 | > 32 |
| O=C(Cc1ccc2c(c1)CNCC2)N[C@H]1Cc2cccc(C(=O)O)c2OB1O [Example 51, (R)-2-Hydroxy-3-(2-1,2,3,4-tetrahydro-isoquinolin-7-yl-acetylamino)-3,4-dihydro-2H-benzo[e][1,2]oxaborinine-8-carboxylic acid] | < 4 | < 100 | < 4 | < 4 | < 4 | < 4 | < 4 |
| O=C(O)c1cccc2c1OB(O)[C@@H](NC(=O)c1cccc3cc[nH]c13)C2 [Example 31, (R)-2-hydroxy-3-(1H-indole-7-carboxamido)-3,4-dihydro-2H-benzo[e][1,2]oxaborinine-8-carboxylic acid] | > 32 | 1000 to 10000 | < 4 | < 4 | < 4 | < 4 | 8 to 32 |
| O=C(N[C@H]1Cc2cccc(C(=O)O)c2OB1O)c1cnco1 [Example 52, (R)-2-Hydroxy-3-[(oxazole-5-carbonyl)-amino]-3,4-dihydro-2H-benzo[e][1,2]oxaborinine-8-carboxylic acid] | > 32 | 100 to 1000 | < 4 | < 4 | < 4 | < 4 | 8 to 32 |
| O=C(Cc1ccc(O)c(O)c1)N[C@H]1Cc2cccc(C(=O)O)c2OB1O [Example 38, (R)-3-(2-(3,4-dihydroxyphenyl)acetamido)-2-hydroxy-3,4-dihydro-2H-benzo[e][1,2]oxaborinine-8-carboxylic acid] | 8 to 32 | 100 to 1000 | < 4 | < 4 | < 4 | < 4 | 8 to 32 |
| O=C(Cc1ccc2cc[nH]c2c1)N[C@H]1Cc2cccc(C(=O)O)c2OB1O [Example 46, (R)-2-Hydroxy-3-(2-1H-indol-6-yl-acetylamino)-3,4-dihydro-2H-benzo[e][1,2]oxaborinine-8-carboxylic acid] | < 4 | < 100 | < 4 | < 4 | < 4 | 8 to 32 | < 4 |
| O=C(O)c1cccc2c1OB(O)[C@@H](NC(=O)C1(c3ccccc3)CC1)C2 [Example 1, (R)-2-hydroxy-3-(1-phenylcyclopropanecarboxamido)-3,4-dihydro-2H-benzo[e][1,2]oxaborinine-8-carboxylic acid] |  | 100 to 1000 | 8 to 32 | < 4 | < 4 |  | 8 to 32 |
| NCc1cnc(C(=O)N[C@H]2Cc3cccc(C(=O)O)c3OB2O)cc1CN [Example 63] | < 4 | < 100 | < 4 | < 4 | < 4 | < 4 | < 4 |
| CN1Cc2ccc(C(=O)N[C@H]3Cc4cccc(C(=O)O)c4OB3O)cc2C1 [Example 10, (R)-2-hydroxy-3-(2-methylisoindoline-5-carboxamido)-3,4-dihydro-2H-benzo[e][1,2]oxaborinine-8-carboxylic acid] | < 4 | < 100 | < 4 | < 4 | < 4 | < 4 | 8 to 32 |
| Cc1ccc(C(=O)N[C@H]2Cc3cccc(C(=O)O)c3OB2O)cc1NC(=O)[C@@H](N)CN [Example 22, (R)-3-(3-((S)-2,3-diaminopropanamido)-4-methylbenzamido)-2-hydroxy-3,4-dihydro-2H-benzo[e][1,2]oxaborinine-8-carboxylic acid] | 8 to 32 | 100 to 1000 | < 4 | < 4 | < 4 | < 4 | > 32 |
| O=C(N[C@H]1Cc2cccc(C(=O)O)c2OB1O)c1ccc(O)c(O)c1 [Example 39, (R)-3-(3,4-dihydroxybenzamido)-2-hydroxy-3,4-dihydro-2H-benzo[e][1,2]oxaborinine-8-carboxylic acid] | 8 to 32 | 100 to 1000 | < 4 | < 4 | < 4 | 8 to 32 | 8 to 32 |
| O=C(Cc1cnc2c(c1)CCCN2)N[C@H]1Cc2cccc(C(=O)O)c2OB1O [Example 13, (R)-2-hydroxy-3-(2-(5,6,7,8-tetrahydro-1,8-naphthyridin-3-yl)acetamido)-3,4-dihydro-2H-benzo[e][1,2]oxaborinine-8-carboxylic acid] | 8 to 32 | 1000 to 10000 | < 4 | < 4 | < 4 | < 4 | 8 to 32 |
